Measurements published in the supplement of paper PMC13207355.

Assays:
Details in all cases: exposure time: 72 h
[1] = system: E13 (patient-derived glioblastoma stem cells of classical subtype); assay: phenotypic distance (Euclidean, principal components) from DMSO controls (arbitrary units); higher = stronger morphological change
[2] = system: E34 (patient-derived glioblastoma stem cells of proneural subtype); assay: as above
[3] = system: E31 (patient-derived glioblastoma stem cells of proneural subtype); assay: as above
[4] = system: FT3469 (normal neural stem cell line); assay: as above
[5] = system: E28 (patient-derived glioblastoma stem cells of classical subtype); assay: as above
[6] = system: E57 (patient-derived glioblastoma stem cells of mesenchymal subtype); assay: as above
[7] = system: E21 (patient-derived glioblastoma stem cells of mesenchymal subtype); assay: as above
[8] = system: E13; assay: surviving fraction (nuclei count normalised to DMSO); higher = more cells surviving (less toxic)
[9] = system: E34; assay: as above
[10] = system: E31; assay: as above
[11] = system: FT3469; assay: as above
[12] = system: E28; assay: as above
[13] = system: E57; assay: as above
[14] = system: E21; assay: as above
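Throughout, for phenotypic distance (Euclidean, principal components) from DMSO controls: cell Painting imaging in 384-well plates, CellProfiler features reduced to at least 20 principal components, Euclidean distance versus same-plate DMSO vehicle wells (0.1% v/v), median over six images per well.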
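Throughout, for surviving fraction (nuclei count normalised to DMSO): nuclei counted by high-content imaging of Hoechst-stained cells in laminin-coated 384-well plates, relative to 0.1% DMSO vehicle wells, with staurosporine as cell-death control.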

COc1ccc(/C=C\c2cc(OC)c(OC)c(OC)c2)cc1OP(=O)(O)O [Fosbretabulin Disodium]
Details	phenotypic distance	surviving fraction
[1], 4.1 nM	1.22	–
[1], 12.3 nM	2.08	–
[1], 37 nM	5.08	–
[1], 111.1 nM	4.95	–
[1], 333.3 nM	5.64	–
[1], 1000 nM	8.31	–
[1], 3000 nM	7.96	–
[2], 4.1 nM	0.709	–
[2], 12.3 nM	0.552	–
[2], 37 nM	0.5	–
[2], 111.1 nM	0.935	–
[2], 333.3 nM	1.29	–
[2], 1000 nM	3.14	–
[2], 3000 nM	7.56	–
[3], 4.1 nM	0.483	–
[3], 12.3 nM	0.846	–
[3], 37 nM	0.502	–
[3], 111.1 nM	0.681	–
[3], 333.3 nM	1.6	–
[3], 1000 nM	4.42	–
[3], 3000 nM	7.65	–
[4], 4.1 nM	0.525	–
[4], 12.3 nM	0.86	–
[4], 37 nM	0.542	–
[4], 111.1 nM	0.517	–
[4], 333.3 nM	1.3	–
[4], 1000 nM	2.97	–
[4], 3000 nM	3.41	–
[5], 4.1 nM	0.427	–
[5], 12.3 nM	0.345	–
[5], 37 nM	0.559	–
[5], 111.1 nM	0.674	–
[5], 333.3 nM	1.52	–
[5], 1000 nM	3.18	–
[5], 3000 nM	3.86	–
[6], 4.1 nM	0.784	–
[6], 12.3 nM	0.887	–
[6], 37 nM	0.575	–
[6], 111.1 nM	1.01	–
[6], 333.3 nM	2.68	–
[6], 1000 nM	5.08	–
[6], 3000 nM	5.09	–
[7], 4.1 nM	0.897	–
[7], 12.3 nM	0.887	–
[7], 37 nM	1.98	–
[7], 111.1 nM	5.67	–
[7], 333.3 nM	6.69	–
[7], 1000 nM	8.1	–
[7], 3000 nM	6.31	–
[8], 4.1 nM	–	0.8
[8], 12.3 nM	–	0.905
[8], 37 nM	–	0.361
[8], 111.1 nM	–	0.241
[8], 333.3 nM	–	0.171
[8], 1000 nM	–	0.175
[8], 3000 nM	–	0.0977
[9], 4.1 nM	–	0.966
[9], 12.3 nM	–	0.962
[9], 37 nM	–	1.06
[9], 111.1 nM	–	0.942
[9], 333.3 nM	–	0.86
[9], 1000 nM	–	0.521
[9], 3000 nM	–	0.348
[10], 4.1 nM	–	0.927
[10], 12.3 nM	–	1.01
[10], 37 nM	–	0.765
[10], 111.1 nM	–	0.917
[10], 333.3 nM	–	0.54
[10], 1000 nM	–	0.123
[10], 3000 nM	–	0.0441
[11], 4.1 nM	–	0.907
[11], 12.3 nM	–	1.03
[11], 37 nM	–	1.03
[11], 111.1 nM	–	0.976
[11], 333.3 nM	–	0.745
[11], 1000 nM	–	0.503
[11], 3000 nM	–	0.346
[12], 4.1 nM	–	1.09
[12], 12.3 nM	–	1
[12], 37 nM	–	0.905
[12], 111.1 nM	–	0.938
[12], 333.3 nM	–	0.894
[12], 1000 nM	–	0.41
[12], 3000 nM	–	0.293
[13], 4.1 nM	–	0.953
[13], 12.3 nM	–	0.934
[13], 37 nM	–	0.943
[13], 111.1 nM	–	0.986
[13], 333.3 nM	–	0.604
[13], 1000 nM	–	0.077
[13], 3000 nM	–	0.0927
[14], 4.1 nM	–	0.889
[14], 12.3 nM	–	0.951
[14], 37 nM	–	0.847
[14], 111.1 nM	–	0.415
[14], 333.3 nM	–	0.176
[14], 1000 nM	–	0.101
[14], 3000 nM	–	0.0981
